How the values were obtained:
[1] = target: T1, MMP14 (Homo sapiens, UniProt P50281); experiment: Capture Compound Mass Spectrometry (CCMS) identification of the marimastat-binding protein (Example 5b); details: excess marimastat competitor
T1 construct: densely grown with adherent HT-1080 cells; endogenous in cells; host or cells: HT-1080 cells (adherent, not recombinant)
Protocol: In a repetition of the experiment described in example 5a, the magnetic particles after the wash buffer and water wash steps (end of 5a.ii) were additionally washed six times with 200 μl 80% acetonitrile and once with 200 μl ultrapure water. The proteins captured on the particles were digested by addition of 9 μl 50 mmol/l ammonium bicarbonate and 1 μl 0.5 mg/ml trypsin (Sequencing Grade, Roche, ProdNo. 11047841001) in 1 mmol/l HCl. The particles were kept in suspension in this solution by shaking (2000 rpm) at 37° C. over night. After magnetically separating the particles, the supernatant was evaporated and the contained tryptic peptides were analyzed by nanoLC-MS/MS after dissolving them in 0.1% formic acid (equipment: Easy-nLC liquid chromatography system; Proxeon Biosystems A/S and LTQ Orbitrap Velos mass spectrometer; Thermo Scientific). The peptide and protein identification by automated sequence database search was performed on the one hand using the search algorithms SEQUEST (implemented in the Proteome Discoverer software 1.2.0.208, Thermo Scientific) and X!Tandem (The Global Proteome Machine Organization; version 2007.01.01.1, implementiert in the Scaffold software, version 3_00_03, Proteome Software Inc.) or on the other hand using MaxQuant (version 1.1.1.25, Cox, J. and Mann, M. (2008) Nat Biotechnol 26, 1367-72.) for label-free quantification of proteins. […]

[2] = test system: HT-1080 cells; experiment: Marimastat-specific tagging of adherent cells by capture compound coated magnetic particles (Example 2a); format: cell-based, human; details: culture "con", with free marimastat competitor; light microscopy
Source text: Cell culture supernatant (10% heat inactivated fetal calf serum (PAA Laboratories GmbH), 1× Penicillin/Streptomycin (PAA) in DMEM (Dulbecco's Modified Eagle Medium) High Glucose (4.5 g/l) with stable glutamin (PAA)) was removed from two cell cultures of adherent fibrosarcoma cells (cell line HT-1080 (ACC 315 Deutsche Sammlung von Mikroorganismen and Zellkulturen DSMZ Braunschweig; densely grown; 3.5 cm petri dish; passage 9) and added to further cell culture supernatant from a larger culture. The petri dish was closed to avoid drying of the cells.
20 μl 10 mg/ml strepatavidin coated magnetic particles of 1 μm diameter (Dynabeads MyOne Steptavidin C1 (Dynal)) (streptavidin magnetic particles or particles in the following) were mixed with 10 μl 100 μM marimastat capture compound V (caprotec bioanalytics GmbH)
[drawing 4] and incubated 10 min at room temperature. The particles were collected at the inner vial wall by applying a strong magnet (caproMag, caprotec bioanalytics GmbH, containing a 150×9×7 mm neodymium magnet (NdFeB) of quality N52 (1.43 Tesla)), and the supernatant was discarded. The particles were resuspended in 500 μl HT-1080 cell culture supernatant, collected magnetically anew and resuspended in 200 μl water, giving a 1 mg/ml marimastat capture compound-particle suspension. […]

[3] = target: T2, marimastat-binding protein on the cell surface of HT-1080 cells (Homo sapiens, UniProt P50281); experiment: Photochemical crosslink on cell surface, detection by streptavidin-horseradish peroxidase blot (Example 5a); details: sample "C": 0.5 mmol/l marimastat competitor, UV irradiated
T2 construct: densely grown with adherent HT-1080 cells; endogenous in cells; host or cells: HT-1080 cells (adherent, not recombinant)
Protocol: Five times three sterile petri dishes with 3.5 cm diameter were densely grown with adherent HT-1080 cells (passage 10, see example 2 for medium and conditions). The cell culture supernatant was collected and 400 μl of this supernatant was again applied onto the cells such that the cells were covered with a layer of cell culture supernatant. Three of the petri dishes were labeled, respectively, “A”, “C”, “PD”, “PDC” and “noCC”. To “A”, “PD” and “noCC” were added 20 μl ultrapure water, respectively. To “C” and “PDC” were added 20 μl 10 mmol/l marimastat, respectively (0.5 mmol/l final concentration) and homogenized by swaying. To “A”, “C”, “PD” and “PDC” were added 2 μl 100 μmol/l marimastat capture compound (0.5 μmol/l final concentration) and homogenized by swaying. After a 2 min incubation, cells with supernatant of petri dishes “A”, “C” and “noCC” (open lids) were irradiated for 1 min with UV light (λmax=310 nm, caproBox, caprotec Bioanalytics GmbH, Berlin). Cells with supernatant of petri dishes “PD” and “PDC” were not irradiated but otherwise treated the same (incubated in caproBox for 1 min without irradiation). The supernatant was collected and discarded (in a repetition experiment, this supernatant was also analyzed as described in example 5b). […]

[4] = test system: HT-1080 cells; experiment: Specific magnetic isolation of selectively tagged cells (Example 3); format: cell-based, human; details: control "con", free marimastat competitor
Protocol: After tagging and washing (method 2, see example 2b) the supernatant was removed from cultures “ver” and “con” and the cultures were treated with 200 μl non-enzymatic cell dissociation solution (Sigma), followed by 10 min incubation at room temperature. […] The cells were moved to two 200 μl PCR vials labelled “ver” and “con”, respectively.

[5] = test system: HT-1080 cells; experiment: Immobilization of cells from suspension on streptavidin coated multititer plates (Example 4); format: cell-based, human; details: mean of three samples
Protocol: HT-1080 cells (see above) were treated for 30 min in cell culture medium with calcein AM to fluorescently stain the cytosol and were provided in suspension (obtained by scraping off the adherent cells using a cell spatula) at a final concentration of ˜0.5*10^6/ml in culture medium. White blood cells (WBC) freshly obtained from a donor by lysis of erythrocytes and subsequent washing and resuspension were adjusted to a final concentration of ˜5*10^6/ml in phosphate buffered saline (PBS). 12-well multititer plates (streptavidin coated) were used for cell immobilization.
Samples of HT-1080 cells to be used as controls were treated with adjusted to 50 μmol/l free marimastat in medium by adding a stock solution (10 mM) of the competitor (samples marked “C”). Non-competitor verum samples are marked “A”.
Samples treated with marimastat capture compound in solution were adjusted to 0.5 μmol/l capture compound in medium from 20 μmol/l stock solution (samples labelled “ind”), or attached to the capture compound-treated streptavidin-coated surface (samples labelled “dir”).
For determining the influence on binding by activating the reactivity function by UV irradiation (samples labelled “UV”) in samples for indirect binding (first capture compound attaching to cells, then cells binding to surface), cells were irradiated for 1 min by a near UV laboratory source (λmax=310 nm, caproBox, caprotec bioanalytics GmbH, Berlin) in an uncoated well (or not for samples without UV irradiation), collected, spun down, washed, and transferred to a streptavidin-coated well (incubation time˜3 h). Samples for direct binding were brought into capture compound coated wells (prepared as described below) directly (incubation time˜3 h) and UV-irradiated therein (or not for samples without UV irradiation). For loading the streptavidin-coated microtiter plates with capture compound, the wells were rinsed repeatedly for 10 min with 10 μl of 20 μM marimastat capture compound per well in 200 μl PBS at room temperature; the supernatant was discarded and the wells were washed with PBS.
The medium over the cells bound to the surface was mainly removed (a minimum rest was left to cover the cells and not let the cells dry) and all wells were washed carefully two times with 1 ml medium. HT-1080 cells were counted by their calcein AM fluorescence using a Cellavista system. Values below are adjusted for HT-1080 cell numbers delivered onto the well (1.9*10^5).

[6] = test system: HT-1080 cells; experiment: Method 2: cell tagging with capture compound first, then streptavidin magnetic particles (Example 2b); format: cell-based, human; details: culture "con", free marimastat competitor added first
Protocol: Cell culture supernatant of two cell cultures of adherent fibrosarcoma cells of cell line HT-1080 was prepared as described above (example 2a).
The cultures were spiked with 400 μl cell culture supernatant each. “Ver” received 20 μl water, control “con” received 20 μl 10 mM free marimastat (competitor), both cultures were swayed for mixing and incubated 3 min at room temperature, carefully keeping the cell layer wet at all times. During this step, the free marimastat in culture “con” binds to marimastat-binding proteins or protein complexes on the surface of cells and blocks their binding sites, preventing marimastat capture compounds from binding during the subsequent step. 2 μl 100 μmol/l marimastat capture compound was added to each culture, shaken gently and incubated 5 min at room temperature. Binding of the marimastat capture compound only happens on the cell surface proteins in culture “ver” (which are not blocked). The supernatant was removed from each, both cultures were washed with 400 μl fresh cell culture supernatant twice to remove excess marimastat capture compound, and 400 μl fresh cell culture supernatant was added each. 1 μl of 10 mg/ml strepatavidin coated magnetic particles of 1 μm diameter (Dynabeads MyOne Steptavidin C1 (Dynal)), was added to each culture, homogenized by swaying and incubated 30 min at room temperature. […]

## CNC(=O)[C@@H](NC(=O)[C@H](CC(C)C)[C@H](O)C(=O)NO)C(C)(C)C [marimastat]
[1]
  MMP14 capture in presence of competitor (MaxQuant analysis): completely suppressed
[2]
  tagging of cells on their surface by particles after washing: not marked, or to only very little extent
[3]
  blot signal of protein photochemically crosslinked with the capture compound: the signal is absent
[4]
  retention of tagged cells at vial wall by magnet: mostly sunk to the bottom of the vial
[5]; C dir (no UV): direct binding, marimastat excess competitor, no UV
  Percent input cells recovered: 14.5 (standard deviation of Percent
[5]; C dir UV: direct binding, marimastat excess competitor, UV activated
  Percent input cells recovered: 7.9 (standard deviation of Percent
[5]; C ind (no UV): indirect binding, marimastat excess competitor, no UV
  Percent input cells recovered: 1.1 (standard deviation of Percent
[5]; C ind UV: indirect binding, 50 μmol/l free marimastat competitor, UV activated
  Percent input cells recovered: 0.7 (standard deviation of Percent
[6]
  particle tagging of cells after washing: little or no particles are visible

— US9550978B2, “Isolation and functional identification of cells” (CAPROTEC BIOANALYTICS GMBH, priority 2010, dated 2017)
